Results published in patent EP0482594A1, “Tylosin derivative and method for preparing the same” (MERCIAN CORPORATION, priority 1990, dated 1992).
In brackets after ≈: the same amount, converted by molar mass. Where two headings read alike, the source gives them in different places.

How the values were obtained:
[1] = test system: Bacillus subtilis ATCC 6633; assay: Antibacterial activity, agar-dilution method (Mueller Hinton agar); assay type: cell-based
Experimental: (§1) Antibacterial activity of the tylosin derivative of the present invention was determined by the agar- dilution method using a Mueller Hinton agar medium (Difco). The results obtained are summarized in Table 1 in which minimum inhibitory concentrations (MICs, ug/ml) are shown. Hereinafter in the specification, Compound A (the compound described in Example 3) is defined as being 4"-O-[(S)-(+)-p-methoxymandeloyl]tylosin represented by the following formula: [drawing 3] wherein R is the same as that defined above; Compound B (the compound described in Example 2) is defined as being 4"-O-[(R)-(-)-p-methoxymandeloyl]tylosin represented by the following formula: [drawing 4] wherein R is the same as that defined above; XV represents 4"-O-[p-methoxyphenylacetyl]tylosin; RKM represents rokitamycin; and EM represents erythromycin.

[2] = test system: Staphylococcus aureus 209P; assay: as above; assay type: cell-based; settings: for MIC: read-out: minimum inhibitory concentrations (MICs)
Experimental: as §1

[3] = test system: Staphylococcus aureus Smith; assay: as above; assay type: cell-based; settings: for MIC: read-out: minimum inhibitory concentrations (MICs)
Experimental: as §1

Escherichia coli K12 = assay: as above; assay type: cell-based; settings: for MIC: read-out: minimum inhibitory concentrations (MICs)
Experimental: as §1

[4] = test system: Staphylococcus epidermidis ATCC 12228; assay: as above; assay type: cell-based; settings: for MIC: Staphylococcus epidermidis; for minimum inhibitory concentrations (MICs): Staphylococcus epidermidis ATCC 12228
Experimental: as §1

mouse bone marrow cells = assay: Inhibition of the colony formation of mouse bone marrow cells; assay type: cell-based; settings: for Number of colonies Average: 1.0 μg/ml (control average 75.3); for activity at 1 µg/mL: Mus musculus, Bone marrow cell; for Number of colonies 1: count 1 (control 95); for Number of colonies 2: count 2 (control 66)
ML-resistant strain = assay: Antibacterial activity, agar-dilution method (Mueller Hinton agar); assay type: cell-based, Staphylococcus aureus; settings: macrolide resistant strain; for MIC: Staphylococcus aureus, read-out: minimum inhibitory concentrations (MICs)
Experimental: as §1

[5] = Stability test using mouse liver homogenate; assay type: in vitro ADME, ICR mouse; settings: for Remaining unhydrolyzed substance (%): after being treated with liver homogenate for 60 minutes at 37 C
Experimental: A liver in collected from an ICR mouse was homogenized by a Potter homogenizer in five times volume of 0.1 M phosphate buffer solution (pH 7.2), and supernatant was obtained by centrifuging the homogenate at 3000 rpm for 10 minutes. To 2 ml of the supernatant obtained above, 2 ml of sample solution containing 500 µg/ml of test compound in 20% aqueous methanol and 1 ml of 0.1 M phosphate buffer solution were added, and the mixture was incubated at 37 ^0 c for 60 minutes and then 1 ml of the mixture was heated at 85 ° C for 3 minutes. The reaction mixture was adjusted to pH 9.0 by adding 1 N NaOH and extracted with 1 ml of ethyl acetate.

[6] = test system: Mouse leukemia L1210 cells; assay: Inhibitory activity on the growth of L1210 cells; assay type: cell-based; settings: for IC50: L1210 cell growth
Experimental: Mouse leukemia L1210 cells were cultured in RPM11640 medium (Gifco) containing 10% horse serum (Gifco) at 37°C under 5% carbon dioxide gas so that the leukemia cells were contained in the amount of 5 x 10^4 cells/ml, and the cells were subjected to passage culture every two or three days to maintain the cell density of 5 x 10^4 cells/ml. The diluted sample solution (0.1 ml) was added to each well of a 24-well plate which contained 0.9 ml of the cultured L1210 cells, and the mixture was incubated at 37 ° C for 48 hours under 5% carbon dioxide gas. The sample solution mentioned above was prepared by dissolving a weighed test compound in dimethyl sulfoxide (DMSO) at the concentration of 100 mg/ml and then diluting the solution with distilled water so that the concentration became 10 mg/ml. The resulting aqueous solution was diluted with phosphate buffer solution to obtain a sample solution at a desired concentration. After incubation, the cell numbers in each well were counted and inhibitory activity on cell growth (ICso) was calculated.

[7] = ATCC6633, Bacillus subtilis ATCC 6633, read-out: minimum inhibitory concentrations (MICs)
[8] = ATCC12228, Staphylococcus epidermidis ATCC 12228, read-out: minimum inhibitory concentrations (MICs)
[9] = 1.0 μg/ml, relative to control = 100

| Compound | MIC [1, 7] | MIC ([2]; Staphylococcus aureus 209P) | MIC ([3]; Staphylococcus aureus Smith) | MIC (Escherichia coli K12) | MIC [4, 8] | Number of colonies Average (mouse bone marrow cells) | activity at 1 µg/mL (mouse bone marrow cells; [9]) | MIC (ML-resistant strain; 1st listed (Table 1 r5)) | MIC (ML-resistant strain; 2nd listed (Table 1 r6)) | MIC (ML-resistant strain; 3rd listed (Table 1 r7)) | MIC (ML-resistant strain; 4th listed (Table 1 r8)) | MIC (ML-resistant strain; 5th listed (Table 1 r9)) | Number of colonies 1 (mouse bone marrow cells; 1.0 μg/ml) | Number of colonies 2 (mouse bone marrow cells; 1.0 μg/ml) | minimum inhibitory concentrations (MICs) (ML-resistant strain; 5th listed (Table 1 r9)) | Inhibitory activity on cell growth (%) ([6]; 10 μg/ml, 48 hours) | minimum inhibitory concentrations (MICs) ([1]; Bacillus subtilis ATCC 6633) | minimum inhibitory concentrations (MICs) ([2]; Staphylococcus aureus 209P) | minimum inhibitory concentrations (MICs) ([3]; Staphylococcus aureus Smith) | minimum inhibitory concentrations (MICs) (Escherichia coli K12) | other results |
| --- | --- | --- | --- | --- | --- | --- | --- | --- | --- | --- | --- | --- | --- | --- | --- | --- | --- | --- | --- | --- | --- |
| CCCC(=O)O[C@H]1[C@H](C)O[C@@H](O[C@H]2[C@H](N(C)C)[C@@H](O)[C@H](O[C@H]3[C@@H](CC=O)C[C@@H](C)[C@@H](O)/C=C/C=C/C[C@@H](C)OC(=O)C[C@@H](O)[C@@H]3OC)O[C@@H]2C)C[C@@]1(C)OC(=O)CC [RKM, rokitamycin] | 0.1 µg/mL (≈ 0.121 µM) | 0.2 µg/mL (≈ 0.242 µM) | 0.39 µg/mL (≈ 0.471 µM) | 100 µg/mL (≈ 121 µM) | < 0.2 µg/mL | 19.0 | 25.2% | > 100 µg/mL | > 100 µg/mL | > 100 µg/mL | < 0.2 µg/mL | > 100 µg/mL | – | – | – | – | – | – | – | – | Number of colonies 3 (mouse bone marrow cells; 1.0 μg/ml, count 3 (control 65)): 19 |
| CCC1OC(=O)CC(O)C(C)C(OC2OC(C)C(OC3CC(C)(O)C(OC(=O)C(O)c4ccc(OC)cc4)C(C)O3)C(N(C)C)C2O)C(CC=O)CC(C)C(=O)C=CC(C)=CC1COC1OC(C)C(O)C(OC)C1OC [Compound A, 4"-O-[(S)-(+)-p-methoxymandeloyl]tylosin] | 0.39 µg/mL (≈ 0.361 µM) | 0.39 µg/mL (≈ 0.361 µM) | 1.56 µg/mL (≈ 1.44 µM) | > 100 µg/mL | 0.39 µg/mL (≈ 0.361 µM) | 31.0 | 41.2% | 6.25 µg/mL (≈ 5.79 µM) | 0.39 µg/mL (≈ 0.361 µM) | 6.25 µg/mL (≈ 5.79 µM) | < 0.2 µg/mL | – | 32 | 30 | 6.25 µg/mL (≈ 5.79 µM) | 5.62% | – | – | – | – | remaining at 1 h ([5]; mouse, liver homogenate, pH 7.2, after being treated with liver homogenate for 60 minutes at 37 C, read-out: Remaining unhydrolyzed substance (%)): 97.8%; inhibition at 1 µg/mL ([6]; Mus musculus, L1210, 48 h, 1 μg/ml, read-out: Inhibitory activity on cell growth (%)): 0%; inhibition at 3 µg/mL ([6]; Mus musculus, L1210, 48 h, 3 μg/ml, read-out: Inhibitory activity on cell growth (%)): 0%; inhibition at 30 µg/mL ([6]; Mus musculus, L1210, 48 h, 30 μg/ml, read-out: Inhibitory activity on cell growth (%)): 47.8%; inhibition at 100 µg/mL ([6]; Mus musculus, L1210, 48 h, 100 μg/ml, read-out: Inhibitory activity on cell growth (%)): 88.8%; IC50 ([6]; Mus musculus, L1210, 48 h, read-out: IC50): 36.6 µg/mL (≈ 33.9 µM) |
| CCC1OC(=O)CC(O)C(C)C(OC2OC(C)C(OC3CC(C)(O)C(OC(=O)C(O)c4ccc(OC)cc4)C(C)O3)C(N(C)C)C2O)C(CC=O)CC(C)C(=O)C=CC(C)=CC1COC1OC(C)C(O)C(OC)C1OC [Compound B, 4"-O-[(R)-(-)-p-methoxymandeloyl]tylosin] | – | – | – | – | – | 29.5 | – | – | – | – | – | – | 34 | 25 | 1.56 µg/mL (≈ 1.44 µM) | 13.48% | 0.39 µg/mL (≈ 0.361 µM) | 0.39 µg/mL (≈ 0.361 µM) | 1.56 µg/mL (≈ 1.44 µM) | > 100 µg/mL | minimum inhibitory concentrations (MICs) [4]: 0.78 µg/mL (≈ 0.722 µM); Remaining unhydrolyzed substance (%) ([5]; 60 min): 100%; minimum inhibitory concentrations (MICs) (ML-resistant strain; 1st listed (Table 1 r5)): 6.25 µg/mL (≈ 5.79 µM); minimum inhibitory concentrations (MICs) (ML-resistant strain; 2nd listed (Table 1 r6)): 0.39 µg/mL (≈ 0.361 µM); minimum inhibitory concentrations (MICs) (ML-resistant strain; 3rd listed (Table 1 r7)): 3.13 µg/mL (≈ 2.9 µM); minimum inhibitory concentrations (MICs) (ML-resistant strain; 4th listed (Table 1 r8)): < 0.20 µg/mL; Inhibitory activity on cell growth (%) ([6]; 1 μg/ml, 48 hours): 0%; Inhibitory activity on cell growth (%) ([6]; 3 μg/ml, 48 hours): 0%; Inhibitory activity on cell growth (%) ([6]; 30 μg/ml, 48 hours): 41.43%; Inhibitory activity on cell growth (%) ([6]; 100 μg/ml, 48 hours): 87.22%; IC50 ([6]; 48 hours): 32.99 µg/mL (≈ 30.5 µM) |
| 4"-O-[p-methoxyphenylacetyl]tylosin [XV] | – | – | – | – | – | 13.0 | – | – | – | – | – | – | 13 | – | 1.56 µg/mL | 82.87% | 0.39 µg/mL | 0.20 µg/mL | 1.56 µg/mL | > 100 µg/mL | minimum inhibitory concentrations (MICs) [4]: 0.78 µg/mL; Remaining unhydrolyzed substance (%) [5]: 92.8%; Colony formation (%) (mouse bone marrow cells; [9]): 17.3%; minimum inhibitory concentrations (MICs) (ML-resistant strain; 1st listed (Table 1 r5)): 6.25 µg/mL; minimum inhibitory concentrations (MICs) (ML-resistant strain; 2nd listed (Table 1 r6)): 0.78 µg/mL; minimum inhibitory concentrations (MICs) (ML-resistant strain; 3rd listed (Table 1 r7)): 3.13 µg/mL; minimum inhibitory concentrations (MICs) (ML-resistant strain; 4th listed (Table 1 r8)): 0.39 µg/mL; Inhibitory activity on cell growth (%) ([6]; 1 μg/ml, 48 hours): 12.22%; Inhibitory activity on cell growth (%) ([6]; 3 μg/ml, 48 hours): 31.18%; Inhibitory activity on cell growth (%) ([6]; 30 μg/ml, 48 hours): 90.45%; Inhibitory activity on cell growth (%) ([6]; 100 μg/ml, 48 hours): 93.68%; IC50 ([6]; 48 hours): 5.01 µg/mL |
| CC[C@H]1OC(=O)[C@H](C)[C@@H](O[C@H]2C[C@@](C)(OC)[C@@H](O)[C@H](C)O2)[C@H](C)[C@@H](O[C@@H]2O[C@H](C)C[C@H](N(C)C)[C@H]2O)[C@](C)(O)C[C@@H](C)C(=O)[C@H](C)[C@@H](O)[C@]1(C)O [EM, erythromycin] | – | – | – | 50 µg/mL (≈ 68.1 µM) | – | – | – | > 100 µg/mL | > 100 µg/mL | > 100 µg/mL | > 100 µg/mL | > 100 µg/mL | – | – | – | – | – | – | – | – | MIC ([1]; Bacillus subtilis, ATCC6633, read-out: minimum inhibitory concentrations (MICs)): 0.1 µg/mL (≈ 0.136 µM); MIC ([2]; Staphylococcus aureus, 209P): 0.1 µg/mL (≈ 0.136 µM); MIC ([3]; Staphylococcus aureus): 0.2 µg/mL (≈ 0.273 µM); MIC ([4]; ATCC12228, read-out: minimum inhibitory concentrations (MICs)): < 0.2 µg/mL |
